One experiment concerns STAT3. Briefly: Western blot of STAT3 phosphorylation in C2C12 myocytes. Format: cell-based. The settings on record: C2C12 pretreated 2 hours, then MSC-CM for 30 min. Here is the method: FIG. 8: Trophic actions of MSCs stimulate JAK/STAT3 signaling in cultured skeletal myocytes. C2C12 myocytes were plated in 6-well plates (10^5 cells per well). After overnight plating, cells were exposed to the indicated conditioned medium. A: Western blot assays of C2C12 cells exposed to MSC-CM for 5 min, 30 min, 6 hr, and 24 hr. B: In situ immunostaining of control medium- and MSC-CM-treated C2C12 cells (30 min incubation) using a p-STAT3 antibody (red) and β-actin antibody (green). Alexa647- and FITC-conjugated secondary antibodies were used. Nuclei were stained with DAPI. C: Western blot assays comparing the effects of porcine MSC-CM, a human embryonic kidney cell line (HEK293) CM, IL-6, IL-11, and LIF on STAT3 phosphorylation in C2C12 myocytes 30 min after treatment. Fifty ng/ml recombinant proteins were used. D: CT for human MSC IL-6-type cytokines. The CT for the house-keeping gene β2-microglobulin and GAPDH are ˜17 and ˜15, respectively.
FIG. 9: gp130/STAT3 signaling stimulates growth factor expression in cultured skeletal myocytes. C2C12 myocytes were treated with […] of a gp130 antibody (R&D Systems; #AF468) or control IgG for one hour at 37° C. The IgG isotype antibody was used as a negative control. Cells were then briefly rinsed and treated with MSC-CM for 30 min to assess STAT3 activation or 3 days for growth factor production. […]
In general terms: In western blotting, separated proteins are transferred to a membrane and probed.

The test system of another experiment is JAK/STAT3 signaling. Nature of the experiment: Extracardiac MSC therapy with WP1066 (echocardiography, ELISA). The experiment is classed as in vivo, hamster. How it is done:
FIG. 14: WP1066 inhibits JAK/STAT3 signaling and abrogates MSC-mediated cardiac repair. […] Cells were pretreated with WP1066 at the indicated dosages for 2 hours, following which cells were stimulated with MSC-CM for 30 min. Western blot assays were performed to determine STAT3 activation. B: The extracardiac MSC therapy was carried out as described previously (54). The four treatment groups (n=5 per group) were: WP1066, drug vehicle (PEG), MSC plus WP1066, and MSC plus drug vehicle (MSC+PEG). qRT-PCR assays of myocardial ANP and BNP expression (n=4 per group) after one month were presented. ANOVA was performed to assess statistical significance. *P<0.05 vs. PEG.
FIG. 15: WP1066 blocks MSC-mediated improvement in cardiac function. Cardiac function was determined by blind-folded echocardiography after MSC administration. A: Representative M-mode recording for the four animal groups at 4 weeks. B: LVEF at 2 and 4 weeks after MSCs. ANOVA was performed to assess statistical significance. *P<0.05 vs. PEG; †P<0.05 vs. WP1066; #P<0.05 vs. pre-injection.
FIG. 16: Inhibition of JAK/STAT3 signaling abolishes MSC-induced tissue growth factor levels. Soluble fractions of total hamstring extracts (panel A) and plasma samples (panel B) were assayed using rodent-specific HGF and VEGF ELISA kits (n=4 per group). Tissue growth factor concentrations were expressed as ng per mg soluble proteins. ANOVA was performed to assess statistical significance. *P<0.05 vs. PEG; †P<0.05 vs. WP1066; #P<0.05 vs. MSC+WP1066.

Structures are written as SMILES.

Regarding `C[C@H](NC(=O)/C(C#N)=C/c1cccc(Br)n1)c1ccccc1` [WP1066], the STAT3 phosphorylation result in the experiment on STAT3 is given as “Inhibitory effect”. For the same molecule, the “MSC-mediated improvement in cardiac function (LVEF)” value in the experiment with JAK/STAT3 signaling (2 and 4 weeks after MSCs) is “blocks”. For the same molecule, in the experiment with JAK/STAT3 signaling (hamstring extracts and plasma), the “MSC-induced tissue growth factor levels (HGF, VEGF)” value is listed as “abolishes”. Further, the MSC-mediated cardiac repair entry with JAK/STAT3 signaling (myocardial ANP and BNP expression after one month) is on record as “abrogates”.

For the origin of these results see patent publication US20130058903A1, “Stem-Cell Material and Method of Use” (priority 2009, published 2013).
